Residues, ends and D or L forms follow the SMILES beside them.

The values that follow come from PMC8214221, “Sequence determinants in the cathelicidin LL-37 that promote inflammation via presentation of RNA to scavenger receptors” (The Journal of Biological Chemistry, 2021).

Series [1] deals with NHEKs, IL6, IFNB1, TSLP, CXCL10 mRNA. In words: qRT-PCR gene expression in NHEKs. The class given is cell-based, human. The note with it: 18 h / 8 h (Fig. 1 legend), n = 3; for Gene expression of IL6, IFNB1, and CXCL10, cotreatment with U1 dsRNA: U1 dsRNA 2.5 μg/ml + peptide 2 μM; for Gene expression of TSLP, peptide alone / Basal expression of IL6, IFNB1, and CXCL10, peptide alone: peptide 2 μM alone; for Gene expression of TSLP, peptide alone: GAPDH reference. As for the experimental part:
Protein levels of human IL-6 were analyzed from cell supernatant with ELISA (n = 3). Corresponding MIC values of LL-34 peptides L1A–R34A against Staphylococcus aureus USA300 are shown in the heat map. B, human dermal endothelial cells (HDMECs) were treated with either U1 dsRNA (2.5 μg/ml) or a combination of U1 dsRNA (2.5 μg/ml) and LL-34 peptides (Pep 1–Pep 34 and Pep–parent LL-34) at 2 μM for 18 h. IL-6 ELISA results are shown (n = 3). Green bars denote loss of IL-6 protein secretion compared with parent control shown in red. C, helical wheel plot for LL-34. Amino acids with green circles denote specific residues where replacement with an alanine caused the loss of IL-6 secretion compared with parent LL-34 peptide in NHEKs cotreated with U1 dsRNA. D, in the helical wheel plot for LL-34, circled green amino acids indicate that a substitution caused a loss of vetting in HDMEC. E–H, NHEKs were treated with LL-34-parent peptide (LL-34-P), LL-34-F5A, LL-34-I24A, LL-34-F27A, and LL-34-L31A at 2 μM, either individually or in combination with U1 dsRNA (2.5 μg/ml) for 8 h. Gene expression of IL-6, IFNB1, TSLP, and CXCL10 was assessed with qRT-PCR. GAPDH was used as a reference gene (n = 3) (∗p < 0.05; ∗∗∗∗p < 0.0001). One way-ANOVA was used. IL-6, interleukin 6; LL-34, 34-amino acid peptide; MIC, minimum inhibitory concentration, ns, not significant.
(§1) We further looked at mRNA abundance by quantitative RT-PCR (qRT-PCR) to evaluate gene expression for type 1 interferon IFNB1, chemokine CXCL10, and cytokines TSLP and IL6 in NHEKs treated with selected LL-34 parent, LL-34—F5A, I24A, F27A, and L31A—peptides either alone or in combination with U1 dsRNA for 18 h (Fig. 1, E–H).
RNA extracted from cells (Pure Link RNA Isolation Kit; Life Technologies) was quantified on the Nanodrop 2000/200C Spectrophotometer (Thermo Fisher Scientific). About 500 ng of purified RNA was used to synthesize complementary DNA with iScript cDNA Synthesis Kit (Bio-Rad). Predeveloped Taqman (Thermo Fisher Scientific) gene expression assays were used to evaluate mRNA transcript levels. Taqman cycling conditions were used as previously described ([9], [45]). All experiments were performed on a CFX96 system (Bio-Rad). Fold change relative to GAPDH was calculated using the Livak ΔΔCt method ([46]).
A general note: Real-time PCR tracks product formation cycle by cycle.

In a further series the test system is Escherichia coli. In words: Bacterial growth inhibition (OD600), E. coli. The conditions noted are these: 0-50 µM overnight, OD 600, n = 3. It counts as cell-based. As for the experimental part: as §1
(§2) Methicillin-resistant S. aureus USA300 and methicillin-sensitive S. aureus SA113 (American Type Culture Collection 35556) were cultured in 3% tryptic soy broth overnight at 37 °C with shaking at 250 rpm. GAS M49 strain NZ131 was cultured in Todd Hewitt broth supplemented with 1% yeast extract overnight at 37 °C without shaking. E. coli R1 strain RS218 was cultured in LB broth overnight at 37 °C with shaking at 250 rpm. MIC values were determined using a round-bottom 96-well microdilution method with RPMI cell culture media (as a source of Ca^2+ and Mg^2+) supplemented with tryptic soy broth, Todd Hewitt broth/yeast extract, or LB to facilitate growth of the respective bacterial strains. Overnight bacterial cultures were subcultured into fresh broth and grown to midlate log phase indicated by an absorbance at 600 nm value between 0.8 and 1.0 for each bacterial strain. The absorbance was then normalized to provide a concentration of 1 × 10^7 colony-forming units/ml in RPMI medium. The LL-34 parent and alanine scan mutants were serially diluted into the 96-well microtiter plates containing prewarmed RPMI bacterial growth medium. A 10 μl aliquot of the midlate log phase bacteria was inoculated into the 96-well microtiter plates that contained 95 μl of RPMI medium with or without the LL-34 peptide dilutions and incubated for 16 to 18 h at […] with shaking at 200 rpm. Inhibition of growth was determined by measuring the absorbance at 600 nm readings of each well using a microplate reader (Infinite M200 Pro; Tecan). The MIC of each bacterial strain was determined by the lowest peptide concentration that inhibited more than 80% bacterial growth.
(§3) (A) NHEKs and HDMECs (B) were treated with LL34- parent peptide and all the 34 alanine substituted peptides (Pep L1A-Pep R34A) and LL37 at 2 µM for 16 h. IL-6 protein secretion was assessed with ELISA (n=3) (C-F) LL34-Parent, LL34 F5A, LL34 I24A, LL34 F27A, and LL34 L31A peptides were incubated with S. aureus USA 300, S. aureus SA113, Group A Streptococcus (GAS) and E. coli at increasing concentrations (0-50 µM) overnight, and bacterial culture growth was assayed as absorbance at OD 600 (n=3).

Series [2] concerns normal human epidermal keratinocytes (NHEKs). In words: LDH release cytotoxicity assay in keratinocytes. The conditions noted are these: minimal concentration giving 50% LDH release by NHEKs. It counts as cell-based. In a few lines: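 Normal human epidermal keratinocytes were exposed to LL-34 parent and alanine-substituted peptides. Cytotoxicity was read as LDH release in fresh culture supernatants after treatment, using a commercial kit, and reported as the minimal concentration showing toxicity.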

Series [3] deals with S. aureus strain USA300 and SA112, GAS. In words: Bacterial growth inhibition (OD600), Gram-positive strains. It counts as cell-based, Staphylococcus aureus; group A Streptococcus. The conditions noted are these: 0-50 µM overnight, OD 600, n = 3, S. aureus USA300, SA113 (SA112 in text). As for the experimental part: as §1, §2, §3
Series [4] has as its system NHEKs, IL-6 secretion in response to U1 dsRNA. In words: IL-6 secretion ELISA in NHEKs. The conditions noted are these: U1 dsRNA 2.5 μg/ml + peptide 2 μM, 18 h, n = 3. The class given is cell-based, human. The method, boiled down:
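NHEKs (also HDMECs) exposed to LL-34 parent or alanine-scan peptides at 2 μM, alone or with U1 dsRNA (2.5 μg/ml), for 18 h. Secreted IL-6 in supernatant quantified by sandwich ELISA (n = 3).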

In the case of `CC[C@H](C)[C@H](NC(=O)[C@H](CCCCN)NC(=O)[C@H](CCC(=O)O)NC(=O)[C@H](CCCCN)NC(=O)[C@H](CO)NC(=O)[C@H](CCCCN)NC(=O)[C@H](CCCNC(=N)N)NC(=O)[C@H](Cc1ccccc1)NC(=O)[C@H](C)NC(=O)[C@H](CC(=O)O)NC(=O)CNC(=O)[C@H](CC(C)C)NC(=O)[C@@H](N)CC(C)C)C(=O)NCC(=O)N[C@@H](CCCCN)C(=O)N[C@@H](CCC(=O)O)C(=O)N[C@@H](Cc1ccccc1)C(=O)N[C@@H](CCCCN)C(=O)N[C@@H](CCCNC(=N)N)C(=O)N[C@H](C(=O)N[C@H](C(=O)N[C@@H](CCC(N)=O)C(=O)N[C@@H](CCCNC(=N)N)C(=O)N[C@H](C(=O)N[C@@H](CCCCN)C(=O)N[C@@H](CC(=O)O)C(=O)N[C@@H](Cc1ccccc1)C(=O)N[C@@H](CC(C)C)C(=O)N[C@@H](CCCNC(=N)N)C(=O)N[C@@H](CC(N)=O)C(=O)N[C@@H](CC(C)C)C(=O)N[C@H](C(=O)N1CCC[C@H]1C(=O)N[C@@H](CCCNC(=N)N)C(=O)O)C(C)C)[C@@H](C)CC)C(C)C)[C@@H](C)CC` [LL-34—F5A] (H-LLGDAFRKSKEKIGKEFKRIVQRIKDFLRNLVPR-OH), in series [1], the “Gene expression of IL6, IFNB1, and CXCL10, cotreatment with U1 dsRNA” value is given as “reduction in gene expression”; the “Gene expression of TSLP, peptide alone” value is on record as “increased gene expression of TSLP”; the “Basal expression of IL6, IFNB1, and CXCL10, peptide alone” value is given as “not affected”. The “Action against Gram-negative E. coli” value in the series on Escherichia coli was “little action”. Further, the “Minimal cytotoxic concentration in NHEK (LD50)” value in series [2] was determined as 10 µM. For the same compound, the “Capacity to inhibit growth of Gram-positive bacteria” value in series [3] is recorded as “increased capacity to inhibit growth of most of the tested Gram-positive bacteria”. Also, the “IL-6 protein secretion, cotreatment with U1 dsRNA, vs U1 dsRNA + LL-34 parent” value in series [4] is “reduced secretion of IL-6 protein”.

Regarding `CC[C@H](C)[C@H](NC(=O)[C@H](CCCCN)NC(=O)[C@H](CCC(=O)O)NC(=O)[C@H](CCCCN)NC(=O)[C@H](CO)NC(=O)[C@H](CCCCN)NC(=O)[C@H](CCCNC(=N)N)NC(=O)[C@H](Cc1ccccc1)NC(=O)[C@H](Cc1ccccc1)NC(=O)[C@H](CC(=O)O)NC(=O)CNC(=O)[C@H](CC(C)C)NC(=O)[C@@H](N)CC(C)C)C(=O)NCC(=O)N[C@@H](CCCCN)C(=O)N[C@@H](CCC(=O)O)C(=O)N[C@@H](Cc1ccccc1)C(=O)N[C@@H](CCCCN)C(=O)N[C@@H](CCCNC(=N)N)C(=O)N[C@H](C(=O)N[C@H](C(=O)N[C@@H](CCC(N)=O)C(=O)N[C@@H](CCCNC(=N)N)C(=O)N[C@H](C(=O)N[C@@H](CCCCN)C(=O)N[C@@H](CC(=O)O)C(=O)N[C@@H](C)C(=O)N[C@@H](CC(C)C)C(=O)N[C@@H](CCCNC(=N)N)C(=O)N[C@@H](CC(N)=O)C(=O)N[C@@H](CC(C)C)C(=O)N[C@H](C(=O)N1CCC[C@H]1C(=O)N[C@@H](CCCNC(=N)N)C(=O)O)C(C)C)[C@@H](C)CC)C(C)C)[C@@H](C)CC` [LL-34—F27A] (H-LLGDFFRKSKEKIGKEFKRIVQRIKDALRNLVPR-OH), in series [1], the “Gene expression of IL6, IFNB1, and CXCL10, cotreatment with U1 dsRNA” value is given as “reduction in gene expression”; the “Gene expression of TSLP, peptide alone” value was “increased gene expression of TSLP”; the “Basal expression of IL6, IFNB1, and CXCL10, peptide alone” value is listed as “not affected”. Moreover, the “Action against Gram-negative E. coli” value with Escherichia coli is reported as “little action”. In addition, the “Minimal cytotoxic concentration in NHEK (LD50)” value in series [2] worked out at 10 µM. The “Capacity to inhibit growth of Gram-positive bacteria” value in series [3] is “increased capacity to inhibit growth of most of the tested Gram-positive bacteria”. Besides, the “IL-6 protein secretion, cotreatment with U1 dsRNA, vs U1 dsRNA + LL-34 parent” value in series [4] is given as “reduced secretion of IL-6 protein”.
